Source: the NIST ThermoML archive (doi:10.1016/j.tca.2013.08.017)

How the values were obtained:
[1] = 101.33 kPa, Crystal, X-ray diffraction
[2] = molar heat capacity at constant pressure; settings: 101.33 kPa, Small sample (50 mg) DSC

CC(C)(C)n1ncc2c(-c3ccccc3)n[nH]c(=O)c21
Settings	mass density [kg/m3]
[1], 296 K	1298

[2], Crystal
Settings	molar heat capacity at constant pressure [J/K/mol]
273 K	944.5
283 K	1034.5
293 K	1124.7
303 K	1216.4
313 K	1310.8
323 K	1409.1
333 K	1512.5
343 K	1622.1
353 K	1739.2
363 K	1865
373 K	2000.7
383 K	2147.5
393 K	2306.5
403 K	2479
413 K	2666.2
423 K	2869.3

CC(C)(C)n1ncc2c(C(F)(F)F)n[nH]c(=O)c21
Settings	mass density [kg/m3]
[1], 293 K	1451

[2]
Settings	molar heat capacity at constant pressure [J/K/mol]
273 K, Crystal	174
283 K, Crystal	202.9
293 K, Crystal	231.9
303 K, Crystal	260.8
313 K, Crystal	289.8
323 K, Crystal	318.7
333 K, Crystal	347.6
343 K, Crystal	376.6
353 K, Crystal	405.5
363 K, Crystal	434.4
373 K, Crystal	463.4
383 K, Crystal	492.3
393 K, Crystal	521.2
403 K, Crystal	550.2
413 K, Crystal	579.1
423 K, Crystal	608.1
448 K, Liquid	813.3
458 K, Liquid	923.4
463 K, Liquid	978.4
